Test results taken from patent US20260176277A1, “COMPOUNDS AND COMPOSITIONS AS eIF4E INHIBITORS AND USES THEREOF” (Ribometrix, Inc., priority 2022, published 2026).

Assays:
human eIF4E protein = biological target: T1, human eIF4E protein (Homo sapiens, UniProt P06730); assay: Biochemical competitive binding assay (TR-FRET competition); conditions: recombinant 6xHIS-tagged human eIF4E, EDA-m7GDP-ATTO-647N probe; read-out: hEIF4E TR-FRET IC50
T1 construct: purchased Novus NBP-45314
Protocol: The potencies of compounds binding to human eIF4E protein were measured using a 384-well time-resolved fluorescence resonance energy transfer (TR-FRET) competition assay. The assay was performed in assay buffer containing 50 mM HEPES pH 7.5, 100 mM KCl, 0.02% Tween-20, and 0.1 mg/mL bovine serum albumin (BSA). The reaction volume was 10 μL and each reaction contained 4 nM recombinant 6×HIS-tagged human eIF4E protein (Novus, NBP-45314), 5 nM EDA-m7GDP-ATTO-647N (Jena Bioscience, NU-827-647N), 2.5 nM Europium conjugated Anti-6×HIS antibody (PerkinElmer, AD0402) and varying concentrations of compound. The final DMSO concentration was 1%.
Compounds were prepared using 11-point, 4-fold serial dilutions in DMSO and 100 nL of diluted compounds were transferred to 384-well assay-ready plates. Recombinant human eIF4E protein at 2× final concentration (8 nM) was pre-incubated with Eu-anti-6×HIS antibody at 2× final concentration (5 nM) for 5 minutes, then 5 μL of the protein solution was added to assay-ready plates. The protein/compound mix was incubated for 15 minutes, after which 5 μL of a solution containing EDA-m7GDP-ATTO-647N probe at 2× final concentration (10 nM) was added. After a subsequent 15-minute incubation, time-resolved fluorescence of assay plates was measured using a Clariostar Plus microplate reader (BMG Labtech) and TR-FRET values were calculated by taking a ratio of the 665 to 620 wavelength signals. After normalization to the average of DMSO control and maximum inhibition control wells, concentration-response data were plotted and standard 4-parameter curve fitting (PEI Signals) was utilized to determine IC50 values.

[1] = system: cap-dependent translation in Flp-In-293 reporter cells; assay: Cellular cap-dependent translation inhibition dual luciferase assay (DLA); type: cell-based; conditions: Homo sapiens, ratio of Fluc (cap-dependent) to Rluc (IRES) luminescence, 24 hours of compound treatment

T1 sequence (P06730 whole entry): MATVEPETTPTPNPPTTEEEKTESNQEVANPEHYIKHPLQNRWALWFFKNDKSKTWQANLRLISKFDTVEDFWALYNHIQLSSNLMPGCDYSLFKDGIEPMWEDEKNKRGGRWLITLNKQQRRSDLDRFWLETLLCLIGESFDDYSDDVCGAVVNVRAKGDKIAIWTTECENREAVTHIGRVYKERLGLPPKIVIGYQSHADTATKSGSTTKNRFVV

Compound | IC50 (human eIF4E protein) [µM] | IC50 [1] [µM]
Cc1nc2c(c(=O)n1CCOc1ccc(Cl)cc1-c1cccc(C(=O)O)c1)CN(C)CC2 [Compound 1] | < 0.4 | 
Cc1nc2c(c(=O)n1CCOc1ccc(Cl)cc1-c1ccc(C(=O)O)cc1)CN(C)CC2 [Compound 2] | 10 to 100 | 
CN1CCc2ncn(CCOc3ccc(Cl)cc3-c3cccc(C(=O)O)c3)c(=O)c2C1 [Compound 3] | 10 to 100 | 
CCN1CCc2nc(C)n(CCOc3ccc(Cl)cc3-c3cccc(C(=O)O)c3)c(=O)c2C1 [Compound 4] | < 0.4 | 10 to 20
Cc1nc2c(c(=O)n1CCOc1ccc(Cl)cc1-c1cccc(C(=O)O)c1)CN(C1CCOCC1)CC2 [Compound 5] | 0.4 to 10 | > 20
COCCN1CCc2nc(C)n(CCOc3ccc(Cl)cc3-c3cccc(C(=O)O)c3)c(=O)c2C1 [Compound 6] | 0.4 to 10 | 
CC(=O)N1CCc2nc(C)n(CCOc3ccc(Cl)cc3-c3cccc(C(=O)O)c3)c(=O)c2C1 [Compound 7] | 0.4 to 10 | 
Cc1nc2c(c(=O)n1CCOc1ccc(Cl)cc1-c1ccnc3c(C(=O)O)csc13)CN(C)CC2 [Compound 8] | < 0.4 | < 10
Cc1nc2c(c(=O)n1CCOc1ccc(Cl)cc1-c1ccnc(C(=O)O)c1)CN(C)CC2 [Compound 9] | < 0.4 | > 20
COCCN1CCc2nc(C)n(CCOc3ccc(Cl)cc3-c3ccnc(C(=O)O)c3)c(=O)c2C1 [Compound 10] | < 0.4 | > 20
Cc1nc2c(c(=O)n1CCOc1ccc(Cl)cc1-c1cccc(C(=O)O)c1)CN(C1COC1)CC2 [Compound 11] | 10 to 100 | > 20
Cc1nc2c(c(=O)n1CCOc1ccc(Cl)cc1-c1cccc(C(=O)O)c1F)CN(C)CC2 [Compound 12] | < 0.4 | > 20
Cc1nc2c(c(=O)n1CCOc1ccc(Cl)cc1-c1ccnc(C(=O)NS(C)(=O)=O)c1)CN(C)CC2 [Compound 13] | < 0.4 | > 20
Cc1nc2c(c(=O)n1CCOc1ccc(Cl)cc1-c1ccnn3c(C(=O)O)ccc13)CN(C)CC2 [Compound 14] | < 0.4 | < 10
Cc1nc2c(c(=O)n1CCOc1ccc(Cl)cc1-c1ccnc(-c3n[nH]c(=O)o3)c1)CN(C)CC2 [Compound 15] | 0.4 to 10 | > 20
Cc1nc2c(c(=O)n1CCOc1ccc(Br)cc1-c1cccc(C(=O)O)c1)CN(C)CC2 [Compound 16] | < 0.4 | > 20

Compound | IC50 (human eIF4E protein) [µM] | IC50 [1] [µM]
Cc1nc2c(c(=O)n1CCOc1cnc(Cl)cc1-c1ccnc(C(=O)O)c1)CN(C)CC2 [Compound 17] | 0.4 to 10 | > 20
Cc1cc(-c2cc(Cl)ccc2OCCn2c(C)nc3c(c2=O)CN(c2ccccc2F)CC3)c2scc(C(=O)O)c2n1 [Compound 18] | < 0.4 | < 10
Cc1cc(-c2cc(Cl)ccc2OCCn2c(C)nc3c(c2=O)CN(c2cc(F)ccc2F)CC3)c2scc(C(=O)O)c2n1 [Compound 19] | < 0.4 | < 10
Cc1cc(-c2cc(Cl)ccc2OCCn2c(C)nc3c(c2=O)CN(Cc2ccncc2)CC3)c2scc(C(=O)O)c2n1 [Compound 20] | < 0.4 | < 10
Cc1cc(-c2cc(Cl)ccc2OCCn2c(C)nc3c(c2=O)CN(c2ccnc4ccncc24)CC3)c2scc(C(=O)O)c2n1 [Compound 21] | < 0.4 | < 10
Cc1cc(-c2cc(Cl)ccc2OCCn2c(C)nc3c(c2=O)CN(c2ccn4ncnc4c2)CC3)c2scc(C(=O)O)c2n1 [Compound 22] | < 0.4 | 10 to 20
COc1cc(N2CCc3nc(C)n(CCOc4ccc(Cl)cc4-c4cc(C)nc5c(C(=O)O)csc45)c(=O)c3C2)ccn1 [Compound 23, 7-[5-chloranyl-2-[2-[6-(2-methoxy-4-pyridyl)-2-methyl-4-oxidanylidene-7,8-dihydro-5H-pyrido[4,3-d]pyrimidin-3-yl]ethoxy]phenyl]-5-methyl-thieno[3,2-b]pyridine-3-carboxylic acid; 2,2,2-tris(fluoranyl) acetic acid] | < 0.4 | < 10
Cc1cc(-c2cc(Cl)ccc2OCCn2c(C)nc3c(c2=O)CN(CC(F)(F)F)CC3)c2scc(C(=O)O)c2n1 [Compound 24, 7-[5-chloranyl-2-[2-[2-methyl-4-oxidany-lidene-6-[2,2,2-tris(fluoranyl)ethyl]-7,8-dihydro-5H-pyrido[4,3-d]pyrimidin-3-yl]ethoxy]phenyl]-5-methyl-thieno[3,2-b]pyridine-3-carboxylic acid; 2,2,2-tris(fluoranyl) acetic acid] | < 0.4 | < 10
Cc1cc(-c2cc(Cl)ccc2OCCn2c(C)nc3c(c2=O)CN(CC(F)(F)F)CC3)c2scc(C(=O)NS(C)(=O)=O)c2n1 [Compound 25, 7-[5-chloranyl-2-[2-[2-methyl-4-oxidanylidene-6-[2,2,2-tris(fluoranyl)ethyl]-7,8-dihydro-5H-pyrdo[4,3-d]pyrimidin-3-yl]ethoxy]phenyl]-5-methyl-N-methylsulfonyl-thieno[3,2-b]pyridine-3-carboxamide; 2,2,2-tris(fluoranyl) acetic acid] | < 0.4 | < 10
Cc1cc(-c2cc(Cl)ccc2OCCn2c(C)nc3c(c2=O)CN(C)CC3)c2ccc(C(=O)O)n2n1 [Compound 26, 4-[5-chloranyl-2-[2-[2,6-di(methyl)-4-oxidanylidene-7,8-dihydro-5H-pyrido[4,3-d]pyrimidin-3-yl]ethoxy]phenyl]-2-methyl-pyrrolo[1,2-b]pyridazine-7-carboxylic acid] | < 0.4 | < 10
Cc1cc(-c2cc(Cl)ccc2OCCn2c(C)nc3c(c2=O)CN(C)CC3)c2ccc(C(=O)NS(C)(=O)=O)n2n1 [Compound 27, 4-[5-chloranyl-2-[2-[2,6-di(methyl)-4-oxidanylidene-7,8-dihydro-5H-pyrido[4,3-d]pyrimidin-3-yl]ethoxy]phenyl]-2-methyl-N-methylsulfonyl-pyrrolo[1,2-b]pyridazine-7-carboxamide] | < 0.4 | < 10
Cc1cc(-c2cc(Cl)ccc2OCCn2c(C)nc3c(c2=O)CN(C)CC3)c2scc(C(=O)NS(C)(=O)=O)c2n1 [Compound 28, 7-[5-chloranyl-2-[2-[2,6-di(methyl)-4-oxidanylidene-7,8-dihydro-5H-pyrido[4,3-d]pyrimidin-3-yl]ethoxy]phenyl]-5-methyl-N-methylsulfonyl-thieno[3,2-b]pyridine-3-carboxamide; 2,2,2-tris(fluoranyl)acetic acid] | < 0.4 | < 10
Cc1cc(-c2cc(Cl)ccc2OCCn2c(C)nc3c(c2=O)CN(C)CC3)c2scc(C(=O)O)c2n1 [Compound 29, 7-[5-chloranyl-2-[2-[2,6-di(methyl)-4-oxidanylidene-7,8-dihydro-5H-pyrido[4,3-d]pyrimidin-3-yl]ethoxy]phenyl]-5-methyl-thieno[3,2-b]pyridine-3-carboxylic acid] | < 0.4 | < 10
Cc1cc(-c2cc(Cl)ccc2OCCn2c(C)nc3c(c2=O)CN(C)CCO3)c2scc(C(=O)O)c2n1 [Compound 30, 7-[5-chloranyl-2-[2-[2,6-di(methyl)-4-oxidanylidene-7,8-dihydro-5H-pyrimido[5,4-f][1,4]oxazepin-3-yl]ethoxy]phenyl]-5-methyl-thieno[3,2-b]pyridine-3-carboxylic acid; 2,2,2-tris(fluorenyl) acetic acid] | < 0.4 | < 10
Cc1nc2c(c(=O)n1CC#Cc1ccc(Cl)cc1-c1ccnc3c(C(=O)O)csc13)CN(C)CC2 [Compound 31] | 10 to 100 | > 20
